Data: paper PMC11316111, “Mechanism of allosteric inhibition of human p97/VCP ATPase and its disease mutant by triazole inhibitors” (Communications Chemistry, 2024)
“And” between values parts separate entries of the source, which are not always exact repeats. Equal entries are not always repeated. Where two headings read alike, the source gives them in different places.

Key:
[1] = tested on: Ub^G76V-GFP/ODD-Luc HeLa cells; test: Cellular Ub^G76V-GFP accumulation assay; type: cell-based; conditions: Homo sapiens, HeLa; Table S3; four replicates; read-out: UbG76V-GFP EC50
Protocol: ImageXpress high-content confocal microscope (Molecular Devices, LLC., San Jose, CA) was used to image cells at GFP channel. The percentage of Ub^G76V-GFP accumulation (%Acc) is calculated using the following formula: […]
The IC50 values were calculated by fitting the %Acc from four replicates with various concentrations of compounds using GraphPad Prism 7.0 (GraphPad, Boston, MA).

HCT116 p97WT = test: HCT116 proliferation assay (CellTiter Glo); type: cell-based; parameters: key to cellular viability of HCT116: % of DMSO control viability
Protocol: (§1) Anti-proliferative activity was measured using CellTiter Glo® Luminescent Cell Viability Assay (Promega G7572) according to the manufacturer’s procedure as described. RMPI1640 containing 5% FBS and 1% penicillin-streptomycin was used as a cell viability medium. A standard curve of HCT116 was generated for finding the linear relationship between the relative luminescence unit and the number of viable cells. […] 24 h after seeding, 8 μL of media containing 5% DMSO was added to each well, and the plate was incubated for an additional 48 h. To test the anti-proliferative activity of p97 inhibitors, we seeded HCT116 at 750 cells per well according to the linear range. […] After 48 h of treatment, cell viability was measured by adding CellTiter Glo reagent and reading the signal with a BioTek Synergy Neo plate reader (Agilent, Santa Clara, CA). The IC50 values were calculated from four replicates using the percentage of growth of treated cells versus the DMSO control. The results were analyzed using GraphPad Prism 7.0 (GraphPad, Boston, MA).

HCT116 p97P510S = test: Cellular viability, resistant HCT116 p97P510S; type: cell-based; conditions: Homo sapiens, HCT-116, Table S3, four replicates
Protocol: (§2) Drug-resistant HCT116 cell lines were derived using the method previously described and with certain modifications[70],[99]. […] Drug-resistant clones were transferred into a new plate for passaging, and subsequently used to study drug resistance and identify the p97 mutations.
as §1

HCT116 p97K512N = test: Cellular viability, resistant HCT116 p97K512N; type: cell-based; conditions: Homo sapiens, HCT-116, Table S3, four replicates
Protocol: as §2, §1

HCT116 p97F618S = test: Cellular viability, resistant HCT116 p97F618S; type: cell-based; conditions: Homo sapiens, HCT-116, Table S3, four replicates
Protocol: as §2, §1

wild-type p97 (p97^WT) = target: T1, wild-type p97 (p97^WT) (Homo sapiens, UniProt P55072); test: p97 ATPase activity (Biomol Green), wild-type p97; type: biochemical; conditions: for IC50: 200 μM ATP, six replicates; for Ratio of IC50 values for mutants to IC50 values for wild-type p97, WT: WT/WT reference
T1 construct: made in house
T1 sequence (P55072 whole entry): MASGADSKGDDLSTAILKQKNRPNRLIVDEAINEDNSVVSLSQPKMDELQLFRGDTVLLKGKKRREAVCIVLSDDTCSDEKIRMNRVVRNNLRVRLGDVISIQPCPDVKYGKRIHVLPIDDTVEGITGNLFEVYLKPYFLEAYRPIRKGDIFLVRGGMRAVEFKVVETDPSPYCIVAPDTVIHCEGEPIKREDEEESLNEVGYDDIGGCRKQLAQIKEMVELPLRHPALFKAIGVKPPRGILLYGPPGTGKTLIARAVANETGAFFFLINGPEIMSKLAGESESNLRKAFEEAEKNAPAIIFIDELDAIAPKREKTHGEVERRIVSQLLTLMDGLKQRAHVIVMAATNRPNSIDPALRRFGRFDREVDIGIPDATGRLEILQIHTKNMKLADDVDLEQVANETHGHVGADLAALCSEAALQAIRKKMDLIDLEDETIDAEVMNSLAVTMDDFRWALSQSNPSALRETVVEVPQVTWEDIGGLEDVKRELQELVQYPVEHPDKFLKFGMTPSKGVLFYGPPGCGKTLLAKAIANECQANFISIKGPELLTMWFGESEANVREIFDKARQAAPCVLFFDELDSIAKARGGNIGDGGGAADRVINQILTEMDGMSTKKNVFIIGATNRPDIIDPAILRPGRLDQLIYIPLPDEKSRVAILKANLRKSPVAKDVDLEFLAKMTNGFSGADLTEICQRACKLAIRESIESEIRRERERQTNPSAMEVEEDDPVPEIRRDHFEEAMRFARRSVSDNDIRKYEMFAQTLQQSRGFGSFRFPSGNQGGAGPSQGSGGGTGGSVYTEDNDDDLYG
Protocol: (§3) Results were calculated from 6 replicates using GraphPad Prism 7.0 (GraphPad Software, Boston, MA).

p97^R155H = target: T2, p97^R155H (Homo sapiens, UniProt P55072, R155H); test: p97 ATPase activity (Biomol Green), R155H mutant; type: biochemical; conditions: for IC50: 200 μM ATP, six replicates; for Ratio of IC50 values for mutants to IC50 values for wild-type p97, R155H: R155H/WT
T2 construct: enabling us to acquire high-resolution biomolecular structures of full-length p97; made in house
T2 sequence (P55072 whole entry R155H): as the sequence (P55072 whole entry) above, with R155H counted along it
Protocol: as §3

p97^P510S = target: T3, p97^P510S (Homo sapiens, UniProt P55072, P510S); test: p97 ATPase activity (Biomol Green), P510S mutant; type: biochemical; conditions: for IC50: 200 μM ATP, six replicates; for Ratio of IC50 values for mutants to IC50 values for wild-type p97, P510S: P510S/WT
T3 construct: made in house
T3 sequence (P55072 whole entry P510S): as the sequence (P55072 whole entry) above, with P510S counted along it
Protocol: as §3

p97^K512N = target: T4, p97^K512N (Homo sapiens, UniProt P55072, K512N); test: p97 ATPase activity (Biomol Green), K512N mutant; type: biochemical; conditions: for IC50: 200 μM ATP, six replicates; for Ratio of IC50 values for mutants to IC50 values for wild-type p97, K512N: K512N/WT
T4 construct: made in house
T4 sequence (P55072 whole entry K512N): as the sequence (P55072 whole entry) above, with K512N counted along it
Protocol: as §3

p97^N616F = target: T5, p97^N616F (Homo sapiens, UniProt P55072, N616F); test: p97 ATPase activity (Biomol Green), N616F mutant; type: biochemical; conditions: for IC50: 200 μM ATP, six replicates; for Ratio of IC50 values for mutants to IC50 values for wild-type p97, N616F: N616F/WT
T5 construct: made in house
T5 sequence (P55072 whole entry N616F): as the sequence (P55072 whole entry) above, with N616F counted along it
Protocol: as §3

p97^F618S = target: T6, p97^F618S (Homo sapiens, UniProt P55072, F618S); test: p97 ATPase activity (Biomol Green), F618S mutant; type: biochemical; conditions: for IC50: 200 μM ATP, six replicates
T6 construct: made in house
T6 sequence (P55072 whole entry F618S): as the sequence (P55072 whole entry) above, with F618S counted along it
Protocol: as §3

[2] = Homo sapiens, HCT-116, Table S6, 48-hour treatment, read-out: Cell viability of HCT116 IC50
[3] = Homo sapiens, HCT-116, Table S3, cellular viability, four replicates, read-out: IC50 HCT116 p97WT

| EC50 [1] [nM] | IC50 (HCT116 p97P510S) [nM] | % ATPase activity (wild-type p97 (p97^WT); inhibitor 0.000905 µM) [%] | % ATPase activity (wild-type p97 (p97^WT); inhibitor 0.002716 µM) [%] | % ATPase activity (wild-type p97 (p97^WT); inhibitor 0.008148 µM) [%] | % ATPase activity (wild-type p97 (p97^WT); inhibitor 0.024444 µM) [%] | % ATPase activity (wild-type p97 (p97^WT); inhibitor 0.073333 µM) [%] | % ATPase activity (wild-type p97 (p97^WT); inhibitor 0.220000 µM) [%] | IC50 (HCT116 p97WT; [3]) [nM] | IC50 (wild-type p97 (p97^WT)) [nM] | Ratio of IC50 values for mutants to IC50 values for wild-type p97, WT (wild-type p97 (p97^WT)) | IC50 (p97^R155H) [nM] | Ratio of IC50 values for mutants to IC50 values for wild-type p97, R155H (p97^R155H) | increase of IC50 versus p97^WT, P510S (p97^P510S) | IC50 (p97^P510S) [nM] | Ratio of IC50 values for mutants to IC50 values for wild-type p97, P510S (p97^P510S) | increase of IC50 versus p97^WT, K512N (p97^K512N) [fold] | IC50 (p97^K512N) [nM] | Ratio of IC50 values for mutants to IC50 values for wild-type p97, K512N (p97^K512N) | SMILES | IC50 (HCT116 p97WT; [2]) [nM] | further results |
| --- | --- | --- | --- | --- | --- | --- | --- | --- | --- | --- | --- | --- | --- | --- | --- | --- | --- | --- | --- | --- | --- |
| 2000 | 9200 | 106 | 98 | 88 | 55 | 28 | 14 | 2000 |  |  |  |  |  |  |  |  |  |  | Cc1cc(OCc2nnc(SC3CCCC3)n2-c2cccnc2)ccc1-c1ccc(S(C)(=O)=O)cc1 [NMS-873, reference compound] |  |  |
| 230 | 6900 | 98 | 90 | 67 | 27 | 15 | 16 | 390 | 15 | 1 | 11 | 0.7 | 61 fold | 910 | 61 | 3 | 45 | 3 | CN1CCC(NC(=O)OCC#Cc2c(F)cc(OCc3nnc(S[C@H]4C=CCCC4)n3-c3cccnc3)cc2F)CC1 [NSC799462] | 296 | increase of IC50 versus p97^WT, N616F (p97^N616F): 121 fold; IC50 (p97^N616F): 1810 nM; Ratio of IC50 values for mutants to IC50 values for wild-type p97, N616F (p97^N616F): 121; increase of IC50 versus p97^WT, F618S (p97^F618S): 31 fold; IC50 (p97^F618S): 460 nM; Ratio of IC50 values for mutants to IC50 values for wild-type p97, F618S (p97^F618S; F618S/WT): 31; cellular viability of HCT116 (HCT116 p97WT; 0.06 µM, single replicates): 105 (2×) and 108; cellular viability of HCT116 (HCT116 p97WT; 0.17 µM, single replicates): 93 (2×) and 96; cellular viability of HCT116 (HCT116 p97WT; 1.60 µM, single replicates, 1.6 µM): 4; cellular viability of HCT116 (HCT116 p97WT; 42.1 µM, single replicates): 1; viability at 0.06 µM (HCT116 p97WT; Homo sapiens, HCT-116, 0.06 µM, single replicates, read-out: cellular viability of HCT116): 100%; viability at 0.17 µM (HCT116 p97WT; Homo sapiens, HCT-116, 0.17 µM, single replicates, read-out: cellular viability of HCT116): 94%; viability at 0.52 µM (HCT116 p97WT; Homo sapiens, HCT-116, 0.52 µM, single replicates, read-out: cellular viability of HCT116): 6%; viability at 1.6 µM (HCT116 p97WT; Homo sapiens, HCT-116, 1.60 µM, single replicates, read-out: cellular viability of HCT116): 5%; viability at 4.7 µM (HCT116 p97WT; Homo sapiens, HCT-116, 4.70 µM, single replicates, read-out: cellular viability of HCT116): 5%; viability at 14 µM (HCT116 p97WT; Homo sapiens, HCT-116, 14.0 µM, single replicates, read-out: cellular viability of HCT116): 5%; viability at 42.1 µM (HCT116 p97WT; Homo sapiens, HCT-116, 42.1 µM, single replicates, read-out: cellular viability of HCT116): 2% |
| 870 |  | 99 | 92 | 72 | 32 | 16 | 12 | 750 | 15 | 1 | 14 | 0.9 | more than 30 fold | 2320 | 155 | 12 | 180 | 12 | CCC(=O)NCC#Cc1cc(F)c(OCc2nnc(S[C@H]3C=CCCC3)n2-c2cccnc2)cc1F [NSC804515] |  | increase of IC50 versus p97^WT, N616F (p97^N616F): more than 30 fold; IC50 (p97^N616F): > 6600 nM; Ratio of IC50 values for mutants to IC50 values for wild-type p97, N616F (p97^N616F): > 440; increase of IC50 versus p97^WT, F618S (p97^F618S): more than 30 fold; IC50 (p97^F618S): 1750 nM |

| SMILES | EC50 [1] [nM] | IC50 (HCT116 p97P510S) [nM] | % ATPase activity (wild-type p97 (p97^WT); inhibitor 0.000905 µM) [%] | % ATPase activity (wild-type p97 (p97^WT); inhibitor 0.002716 µM) [%] | % ATPase activity (wild-type p97 (p97^WT); inhibitor 0.008148 µM) [%] | % ATPase activity (wild-type p97 (p97^WT); inhibitor 0.024444 µM) [%] | % ATPase activity (wild-type p97 (p97^WT); inhibitor 0.073333 µM) [%] | % ATPase activity (wild-type p97 (p97^WT); inhibitor 0.220000 µM) [%] | IC50 (HCT116 p97WT; [3]) [nM] | IC50 (wild-type p97 (p97^WT)) [nM] | Ratio of IC50 values for mutants to IC50 values for wild-type p97, WT (wild-type p97 (p97^WT)) | IC50 (p97^R155H) [nM] | Ratio of IC50 values for mutants to IC50 values for wild-type p97, R155H (p97^R155H) | increase of IC50 versus p97^WT, P510S (p97^P510S) | IC50 (p97^P510S) [nM] | Ratio of IC50 values for mutants to IC50 values for wild-type p97, P510S (p97^P510S) | increase of IC50 versus p97^WT, K512N (p97^K512N) [fold] | IC50 (p97^K512N) [nM] | Ratio of IC50 values for mutants to IC50 values for wild-type p97, K512N (p97^K512N) | IC50 (HCT116 p97WT; [2]) [nM] | further results |
| --- | --- | --- | --- | --- | --- | --- | --- | --- | --- | --- | --- | --- | --- | --- | --- | --- | --- | --- | --- | --- | --- |
| Cc1cc2c(C(N)=O)cccc2n1-c1nc2c(c(NCc3ccccc3)n1)COCC2 [CB-5083, 1-[4-(benzylamino)-5H,7H,8H-pyrano[3d,[4]]pyrimidin-2-yl]-2-methyl-1H-indole-4-carboxamide, reference compound] | 430 | 1000 |  |  |  |  |  |  |  |  |  |  |  |  |  |  |  |  |  | 344 | IC50 (HCT116 p97WT; Homo sapiens, HCT-116, read-out: IC50 HCT116 p97WT): 400 nM; IC50 (HCT116 p97K512N): 500 nM; IC50 (HCT116 p97F618S): 600 nM |
